Data from paper PMC6664820, “Novel natural and synthetic inhibitors of solute carriers SGLT1 and SGLT2” (Pharmacology Research & Perspectives, 2019).
Values joined by “and” are separate entries in the source; they are usually repeats but may differ in a detail not shown here. Equal values may be shown once. Where a name gives a salt, the structure may show the parent alone. Read-outs that look alike come from different tables or passages of the source.

Key:
[1] = target: T1, SGLT1 (Homo sapiens, UniProt P13866); assay: SGLT1 inhibition assay for validation of screening hits and similar compounds (1‐NBD‐glucose uptake, CHO‐hSGLT1 cells); assay type: cell-based; set-up: activity: dose or concentration left out as unconfirmed; conditions: for remaining activity at 5 µM / remaining activity at 50 µM: 0.5 h, read-out: NORMALIZED SGLT1 ACTIVITY (%); for activity: compound, normalized 1-NBD-glucose uptake, CHO-hSGLT1 cells
T1 sequence (P13866 1-664): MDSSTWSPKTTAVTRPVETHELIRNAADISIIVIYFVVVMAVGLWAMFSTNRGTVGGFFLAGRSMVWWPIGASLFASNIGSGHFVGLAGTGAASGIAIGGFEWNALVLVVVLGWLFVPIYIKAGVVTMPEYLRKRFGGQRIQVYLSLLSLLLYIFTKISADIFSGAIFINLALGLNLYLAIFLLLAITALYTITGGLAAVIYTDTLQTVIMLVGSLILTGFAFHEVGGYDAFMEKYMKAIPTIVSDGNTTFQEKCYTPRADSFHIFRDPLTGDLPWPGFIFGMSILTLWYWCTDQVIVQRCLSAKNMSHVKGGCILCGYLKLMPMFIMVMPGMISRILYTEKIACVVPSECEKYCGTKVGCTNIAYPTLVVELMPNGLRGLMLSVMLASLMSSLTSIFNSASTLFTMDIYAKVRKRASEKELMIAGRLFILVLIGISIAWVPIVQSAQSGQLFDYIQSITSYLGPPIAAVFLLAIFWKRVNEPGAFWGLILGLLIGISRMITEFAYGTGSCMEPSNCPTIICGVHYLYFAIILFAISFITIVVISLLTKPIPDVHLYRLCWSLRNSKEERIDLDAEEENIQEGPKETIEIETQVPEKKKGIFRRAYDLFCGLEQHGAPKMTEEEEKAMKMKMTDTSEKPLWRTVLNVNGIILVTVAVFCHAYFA

[2] = target: T2, hSGLT2 (Homo sapiens, UniProt P31639); assay: SGLT2 inhibition assay for validation of screening hits and similar compounds (1‐NBD‐glucose uptake, CHO‐hSGLT2 cells); assay type: cell-based; set-up: activity: dose or concentration left out as unconfirmed; conditions: for remaining activity at 5 µM / remaining activity at 50 µM: 0.5 h, read-out: NORMALIZED SGLT2 ACTIVITY (%); for activity: compound, normalized 1-NBD-glucose uptake, CHO-hSGLT2 cells
T2 sequence (P31639 1-672): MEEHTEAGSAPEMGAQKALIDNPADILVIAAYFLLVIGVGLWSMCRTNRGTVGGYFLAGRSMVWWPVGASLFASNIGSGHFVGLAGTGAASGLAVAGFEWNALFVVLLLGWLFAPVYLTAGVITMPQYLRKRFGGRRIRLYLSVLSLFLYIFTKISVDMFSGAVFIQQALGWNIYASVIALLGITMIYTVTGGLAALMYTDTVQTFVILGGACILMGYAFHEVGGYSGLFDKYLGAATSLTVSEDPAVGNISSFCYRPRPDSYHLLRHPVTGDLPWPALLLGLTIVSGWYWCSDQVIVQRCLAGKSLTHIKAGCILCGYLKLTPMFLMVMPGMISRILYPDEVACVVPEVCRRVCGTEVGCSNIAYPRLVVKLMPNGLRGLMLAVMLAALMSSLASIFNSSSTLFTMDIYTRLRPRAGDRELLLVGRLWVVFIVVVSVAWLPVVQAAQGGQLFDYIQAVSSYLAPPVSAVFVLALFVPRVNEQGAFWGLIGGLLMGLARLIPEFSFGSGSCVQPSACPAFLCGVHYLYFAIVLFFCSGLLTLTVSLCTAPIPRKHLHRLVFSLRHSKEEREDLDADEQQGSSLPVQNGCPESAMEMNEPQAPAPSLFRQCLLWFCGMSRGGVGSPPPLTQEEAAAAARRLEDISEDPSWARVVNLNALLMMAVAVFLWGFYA

[3] = system: CHO‐hSGLT1/2 cells; assay: Cytotoxicity assay (ToxiLight, adenylate kinase leakage into CHO‐SGLT1/2 inhibition assay media); set-up: CYTOTOXICITY / CY[…], mean / CYTOTOXICITY (% of vehicle control) Mean / CYTOTOXICITY, mean / CY[…] (% of vehicle control) Mean: dose or concentration left out as unconfirmed; conditions: mean; for CY[…] 50 mM: at 50 mM (so in the source);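 on all read-outs here: bioluminescent read-out of adenylate kinase released from lysed cells into the medium, given relative to DMSO vehicle control defined as 0%, higher meaning more cytolysis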
[4] = ratio of normalized SGLT2 to SGLT1 activity at 5 uM

Structure (SMILES)	remaining activity at 5 µM ([1]; mean, concentration not given) [%]	remaining activity at 50 µM ([1]; mean, concentration not given) [%]	remaining activity at 5 µM ([2]; mean, concentration not given) [%]	remaining activity at 50 µM ([2]; mean, concentration not given) [%]	activity ([1]; mean) [%]	activity ([2]; mean) [%]	SGLT2/SGLT1 ACTIVITY RATIO 5 uM Mean [2, 4]	CYTOTOXICITY (% of vehicle control) Mean [3]	also measured
Cc1cccc(C)c1NC(=O)C1CCCCN1C (racemic) [(±)-Mepivacaine HCl]	98	89	89	82	–	–	–	–	CYTOTOXICITY [3]: 3
Oc1c(Br)cc(Cl)c2cccnc12 [7-Bromo-5-chloro-8-hydroxyquinoline]	103	45	92	78	–	–	–	–	CYTOTOXICITY [3]: 14
C/C=C(\C)C(=O)O[C@H]1[C@@H](OC(C)=O)c2c(ccc3ccc(=O)oc23)OC1(C)C [(+)-Praeruptorin A]	–	–	–	–	94	95	1.0	-5.48 % of vehicle control	–
CC=C(C)C(=O)O[C@H]1c2c(ccc3ccc(=O)oc23)OC(C)(C)[C@H]1OC(C)=O [(+)-Pteryxin]	–	–	–	–	75	81	1.1	2 % of vehicle control	–
Oc1ccc(/C=C/c2cc(O)cc3c2[C@H](c2cc(O)cc(O)c2)[C@@H](c2ccc(O)cc2)O3)cc1 [(+)-e-Viniferin]	97	56	102	79	–	–	–	–	CYTOTOXICITY [3]: 6
CN1[C@@H](CC(=O)c2ccccc2)CCC[C@H]1C[C@H](O)c1ccccc1 [(-)-Lobeline HCl]	98	57	97	63	–	–	–	–	CY[…] 50 mM [3]: -18
Oc1ccc(/C=C/c2cc(O)cc3c2[C@@H](c2cc(O)cc(O)c2)[C@H](c2ccc(O)cc2)O3)cc1 [(-)-e-Viniferin]	106	117	107	65	–	–	–	–	CYTOTOXICITY [3]: -9
CCN(CC)CCOC(=O)C(c1ccccc1)c1ccccc1 [Adiphenine HCl]	–	–	–	–	108	113	1.0	–	CY[…] (% of vehicle control) Mean [3]: -16 % of vehicle control
O=C1c2cc(CO)cc(O)c2C(=O)c2c(O[C@@H]3O[C@H](CO)[C@@H](O)[C@H](O)[C@H]3O)cccc21 [Aloe-emodin-8-O-b-D-glucopyranoside]	–	–	–	–	100	100	1.0	-3.25 % of vehicle control	–
OC(CCN1CCCCC1)(c1ccccc1)C1CC2C=CC1C2 (centres unmarked) [Biperiden HCl]	–	–	–	–	79	75	0.949	–	CY[…] (% of vehicle control) Mean [3]: -7 % of vehicle control
CCCCN1CCCCC1C(=O)Nc1c(C)cccc1C (centres unmarked) [Bupivacaine HCl monohydrate]	68	36	72	50	–	–	–	–	CY[…] 50 mM [3]: -2.27
CCN(CC)CCOC(=O)C1(c2ccccc2)CCCC1 [Caramiphen HCl]	–	–	–	–	101	88	0.9	-5.41 % of vehicle control	–
COc1ccc(-c2coc3cc(O[C@@H]4O[C@H](CO)[C@@H](O)[C@H](O)[C@H]4O)c(OC)cc3c2=O)cc1OC [Cladrastin-7-O-b-D-glucopyranoside]	–	–	–	–	104	103	1.0	-23 % of vehicle control	–
CCOC(=O)c1ccc(OC2OC(CO)C(O)C(O)C2O)cc1 (centres unmarked) [Clivicolide]	–	–	–	–	99	111	1.1	12 % of vehicle control	–
Clc1ccc(C(OCCN2CCCCC2)c2ccccc2)cc1 (centres unmarked) [Cloperastine HCl]	–	–	–	–	61	65	1.1	-5 % of vehicle control	–
COC(=O)C(c1ccccc1Cl)N1CCc2sccc2C1 (centres unmarked) [Clopidogrelum, clopidogrel]	–	–	–	–	–	–	–	–	remaining activity at 5 µM [1]: 96%; remaining activity at 50 µM [1]: 54%; SGLT2/SGLT1 ACTIVITY RATIO [2]: 1.1 and 1.0; remaining activity at 5 µM [2]: 95%; remaining activity at 50 µM [2]: 60%; CY[…] 50 mM [3]: -9
O=c1c(-c2ccc(O)cc2)coc2cc(O[C@@H]3O[C@H](CO)[C@@H](O)[C@H](O)[C@H]3O)ccc12 [Daidzin]	–	–	–	–	97	102	1.0	-19 % of vehicle control	–
O=c1c2ccccc2[nH]c(=S)n1CCN1CCC(=C(c2ccc(F)cc2)c2ccc(F)cc2)CC1 [Diacylglycerol Kinase Inhibitor II]	105	89	106	85	–	–	–	–	CYTOTOXICITY [3]: -13
CN1CCC(OC(c2ccccc2)c2ccccc2)CC1 [Diphenylpyraline HCl]	–	–	–	–	108	104	1.0	–	CY[…] (% of vehicle control) Mean [3]: -6 % of vehicle control
C[C@@H]1O[C@@H](O[C@H]2[C@H](O[C@H]3CC[C@@]4(C)[C@@H](CC[C@]5(C)[C@@H]4CC=C4[C@@H]6CC(C)(C)CC[C@]6(C(=O)O[C@@H]6O[C@H](CO[C@@H]7O[C@H](CO)[C@@H](O)[C@H](O)[C@H]7O)[C@@H](O)[C@H](O)[C@H]6O)CC[C@]45C)[C@]3(C)CO)OC[C@H](O)[C@@H]2O)[C@H](O)[C@H](O)[C@H]1O [Dipsacoside B]	–	–	–	–	–	–	–	–	remaining activity at 5 µM [1]: 96%; remaining activity at 50 µM [1]: 104%; SGLT2/SGLT1 ACTIVITY RATIO [2]: 1.2 and 1.3; remaining activity at 5 µM [2]: 121%; remaining activity at 50 µM [2]: 121%; CY[…] 50 mM [3]: -12
COC(=O)[C@@]1(C)CC[C@]2(C(=O)O[C@@H]3O[C@H](CO)[C@@H](O)[C@H](O)[C@H]3O)CC[C@]3(C)C(=CC[C@@H]4[C@@]5(C)C[C@H](O)[C@H](O[C@@H]6OC[C@@H](O[C@@H]7O[C@H](CO)[C@@H](O)[C@H](O)[C@H]7O)[C@H](O)[C@H]6O)[C@@](C)(CO)[C@@H]5CC[C@]43C)[C@@H]2C1 [Esculentoside H]	104	102	120	112	–	–	–	–	CYTOTOXICITY [3]: -13
C=C[C@@]1(C)CC(=O)[C@]2(O)[C@@]3(C)[C@@H](O)CCC(C)(C)[C@@H]3[C@H](O)[C@H](OC(C)=O)[C@@]2(C)O1 [Forskolin]	89	79	103	95	–	–	–	–	CY[…] 50 mM [3]: 12
C[C@@H]1O[C@@H](O[C@H]2[C@H](O[C@H]3CC[C@@]4(C)[C@@H](CC[C@]5(C)[C@@H]4CC=C4[C@@H]6CC(C)(C)CC[C@]6(C(=O)O)CC[C@]45C)[C@]3(C)CO)OC[C@H](O)[C@@H]2O)[C@H](O)[C@H](O[C@@H]2O[C@H](CO)[C@@H](O)[C@H](O)[C@H]2O)[C@H]1O [Kalopanaxsaponin H]	104	99	117	110	–	–	–	–	CYTOTOXICITY [3]: -33
C=C(C)C(CC=C(C)C)Cc1c(O)cc2c(c1O)C(=O)CC(c1ccc(O)cc1O)O2 (centres unmarked) [Kushenol F]	–	–	–	–	109	–	–	15 % of vehicle control	SGLT2/SGLT1 ACTIVITY RATIO 5 uM Mean [2]: 1.1; SGLT2/SGLT1 ACTIVITY RATIO 50 mM Mean [2]: 1.1
